Assay results taken from patent US20110152313A1 (MACQUARIE UNIVERSITY, priority 2008, published 2011).
Values after ≈ are worked out from the molar mass of the structure shown.

Key:
BMPR1B = BMPR1B (Homo sapiens, UniProt O00238); assay: kinase binding constant, 11-point dose response (T7 phage, qPCR); conditions: >30 = no inhibition at highest concentration tested
Procedure: (§1) Kinase inhibition studies were performed by methods well known in the prior art (Fabian, M. A. et al. Nat. Biotechnol. 2005, 23, 329). Briefly, kinase-tagged T7 phage strains were prepared in an E. coli host derived from the BL21 strain. E. coli were grown to log-phase and infected with T7 phage and incubated with shaking at 32° C. until lysis. The lysates were centrifuged and filtered to remove cell debris. […] The liganded beads were blocked with excess biotin and washed with blocking buffer (SeaBlock (Pierce); 1% BSA, 0.05% Tween 20, 1 mM DTT) to remove unbound ligand and to reduce non-specific binding. […] All reactions were performed in polystyrene 96-well plates in a final volume of 0.135 ml. […] The kinase concentration in the eluates was measured by qPCR.
(§2) An 11-point 3-fold serial dilution of each test compound (from 30 μM to 0.5 nM) was prepared in 100% DMSO at 100× final test concentration and subsequently diluted to 1× in the assay (final DMSO concentration=1%). Binding constants (KDS) were calculated with a standard dose-response curve using a 5-point sigmoidal (Hill) equation.

CLK2 = CLK2 (Homo sapiens, UniProt P49760); assay: as above; conditions: >30 = no inhibition at highest concentration tested
Procedure: as §1, §2

DYRK1A = DYRK1A (Homo sapiens, UniProt Q13627); assay: as above; conditions: >30 = no inhibition at highest concentration tested
Procedure: as §1, §2

DYRK2 = target: T1, DYRK2 (Homo sapiens, UniProt Q92630); assay: as above; conditions: >30 = no inhibition at highest concentration tested
T1 sequence (Q92630 1-601): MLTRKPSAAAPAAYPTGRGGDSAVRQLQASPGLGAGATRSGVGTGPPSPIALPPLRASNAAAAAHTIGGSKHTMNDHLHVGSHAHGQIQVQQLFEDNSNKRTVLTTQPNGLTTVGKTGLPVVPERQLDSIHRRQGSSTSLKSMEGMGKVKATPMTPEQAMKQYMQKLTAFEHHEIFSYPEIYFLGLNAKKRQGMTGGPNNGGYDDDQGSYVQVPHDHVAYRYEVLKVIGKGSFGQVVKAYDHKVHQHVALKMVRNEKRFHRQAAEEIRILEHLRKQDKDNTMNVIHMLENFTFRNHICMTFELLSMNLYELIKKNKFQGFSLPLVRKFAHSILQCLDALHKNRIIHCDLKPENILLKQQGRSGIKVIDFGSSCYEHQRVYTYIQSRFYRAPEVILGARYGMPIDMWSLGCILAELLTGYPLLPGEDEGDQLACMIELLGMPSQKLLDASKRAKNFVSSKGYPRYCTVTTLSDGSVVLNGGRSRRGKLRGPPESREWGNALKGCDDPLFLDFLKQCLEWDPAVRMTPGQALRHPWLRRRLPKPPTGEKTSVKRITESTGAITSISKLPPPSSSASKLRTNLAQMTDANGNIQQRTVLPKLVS
Procedure: as §1, §2

CAMKK2 = CAMKK2 (Homo sapiens, UniProt Q96RR4); assay: as above; conditions: >30 = no inhibition at highest concentration tested
Procedure: as §1, §2

CDK7 = CDK7 (Homo sapiens, UniProt P50613); assay: as above; conditions: >30 = no inhibition at highest concentration tested
Procedure: as §1, §2

[1] = test system: new blood vessel growth from isolated rat aorta fragments; assay: rat aorta fragment vessel outgrowth (anti-angiogenic) assay in fibrin gel; format: cell-based; conditions: 120 h, read-out: Anti-Angiogenesis Activity IC50 (concentration that inhibits 50% of the new blood vessel growth); rat aorta fragments, day 5; >100 = no inhibition under the assay conditions
Procedure: A potentially non-toxic method of treating cancer is to inhibit angiogenesis. The human anti-angiogenic and therefore antiproliferative action of drugs can be assessed by many methods well known in the prior art. […] Briefly, thoracic aortas were excized from 3-9 month-old female Fischer rats, cross-sectioned at 1 mm intervals and embedded individually in 0.5 ml of a fibrin gel containing 5 μg/ml of aprotinin (to prevent fibrinolysis) in each well of a 48-well culture plate. Immediately after vessel embedding, 0.5 ml/well of medium M199, supplemented with 20% foetal calf serum, 0.1% E-aminocaproic acid, 1% L-glutamine and antibiotics, was added. Each test compound (10 mg/ml, dissolved in DMSO) was added to the medium (maximum final concentration of test compound 100 μg/ml) and each treatment was performed in six wells. Control cultures received medium containing 0.1% DMSO but without any test compound. […] Vessels were cultured at 37° C. in 5% CO2 in air for 5 days and the medium, with or without test compound, was changed on day 4. Vessel growth was quantified manually under 40× magnification on day 5, with growth being estimated as the percentage of the field (×40) around the vessel fragment that was occupied by vessel outgrowths. By counting the number of vessels formed after 5 days at three to six different concentrations (in triplicate) it is possible to determine an IC50 values for each compound compared to a positive and negative (solvent) control. The percentage inhibition (0-100%) is plotted against compound concentration and a 3-parameter sigmoidal (dose-response) curve fitted (Graphpad Prism v 4) by non-linear regression.

CDK5/p25 = target: T2, CDK5/p25 (Homo sapiens, UniProt Q00535); assay: protein kinase activity assay ([γ-32P] ATP, histone H1); format: biochemical; conditions: 15 μM ATP, 30° C.; tested up to 100 μM; read-out: IC50 CDK5/p25
T2 construct: made in house
Procedure: Buffer A: 10 mM MgCl2, 1 mM EGTA, 1 mM DTT, 25 mM Tris-HCl pH 7.5, 50 μg heparin/mL. Buffer C: 60 mM β-glycerophosphate, 15 mM p-nitrophenylphosphate, 25 mM Mops (pH 7.2), 5 mM EGTA, 15 mM MgCl2, 1 mM DTT, 1 mM sodium vanadate, 1 mM phenyl phosphate.
Anticancer activity is commonly associated with the inhibition of kinase enzymes. […] Blank values are subtracted and activities expressed as percent of the maximal activity, i.e. in the absence of inhibitors (Table 4). Controls were performed with appropriate dilutions of DMSO, which was used to dissolve all test compounds.
CDK1/cyclin B (native M phase starfish oocytes), and CDK5/p25 (recombinant human) can be prepared according to the prior art (Meijer, L.; Thunnissen, A. M. W. H.; White, A. W.; Gamier, M.; Nikolic, M., et al. Chem. Biol. 2000, 7, 51-63). […] ATP (3,000 Ci/mmol, 10 mCi/mL) in a final volume of 30 μL. After 30 min. incubation at 30° C., 25 μL aliquots of supernatant are spotted onto 2.5×3 cm pieces of Whatman P81 phosphocellulose paper and, 20 s later, the filters are washed five times (for at least 5 min. each time) in a solution of 10 mL phosphoric acid/L of water. The wet filters are then counted in the presence of 1 mL ACS (Amersham) scintillation fluid.

Chain of CLK2 (P49760 whole entry): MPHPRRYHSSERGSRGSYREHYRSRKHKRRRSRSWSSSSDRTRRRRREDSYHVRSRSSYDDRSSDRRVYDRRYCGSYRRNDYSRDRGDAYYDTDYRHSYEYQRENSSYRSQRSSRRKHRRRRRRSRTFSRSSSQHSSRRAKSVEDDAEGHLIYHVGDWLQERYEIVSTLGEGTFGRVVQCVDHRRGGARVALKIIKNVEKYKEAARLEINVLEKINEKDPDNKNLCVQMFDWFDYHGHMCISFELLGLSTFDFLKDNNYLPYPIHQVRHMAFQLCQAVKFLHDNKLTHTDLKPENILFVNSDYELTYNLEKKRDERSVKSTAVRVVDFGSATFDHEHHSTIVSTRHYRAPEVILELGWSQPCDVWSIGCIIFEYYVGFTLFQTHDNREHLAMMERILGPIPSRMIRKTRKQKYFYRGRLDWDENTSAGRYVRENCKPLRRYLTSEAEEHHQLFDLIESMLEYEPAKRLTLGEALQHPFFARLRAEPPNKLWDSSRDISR
Chain of BMPR1B (O00238 14-502): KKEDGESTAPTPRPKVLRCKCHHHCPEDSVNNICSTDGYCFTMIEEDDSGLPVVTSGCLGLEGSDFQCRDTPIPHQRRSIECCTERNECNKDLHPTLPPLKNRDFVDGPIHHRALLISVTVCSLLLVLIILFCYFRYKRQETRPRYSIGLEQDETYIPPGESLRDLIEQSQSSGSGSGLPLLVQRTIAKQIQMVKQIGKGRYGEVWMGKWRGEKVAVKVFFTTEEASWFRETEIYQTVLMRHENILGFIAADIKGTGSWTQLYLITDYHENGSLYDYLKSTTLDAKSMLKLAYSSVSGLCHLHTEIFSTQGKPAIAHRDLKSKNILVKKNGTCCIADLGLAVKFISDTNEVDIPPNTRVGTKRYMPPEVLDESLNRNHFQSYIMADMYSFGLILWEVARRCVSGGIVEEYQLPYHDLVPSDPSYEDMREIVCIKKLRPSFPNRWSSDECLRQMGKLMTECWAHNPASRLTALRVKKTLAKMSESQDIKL
Chain of CAMKK2 (Q96RR4 whole entry): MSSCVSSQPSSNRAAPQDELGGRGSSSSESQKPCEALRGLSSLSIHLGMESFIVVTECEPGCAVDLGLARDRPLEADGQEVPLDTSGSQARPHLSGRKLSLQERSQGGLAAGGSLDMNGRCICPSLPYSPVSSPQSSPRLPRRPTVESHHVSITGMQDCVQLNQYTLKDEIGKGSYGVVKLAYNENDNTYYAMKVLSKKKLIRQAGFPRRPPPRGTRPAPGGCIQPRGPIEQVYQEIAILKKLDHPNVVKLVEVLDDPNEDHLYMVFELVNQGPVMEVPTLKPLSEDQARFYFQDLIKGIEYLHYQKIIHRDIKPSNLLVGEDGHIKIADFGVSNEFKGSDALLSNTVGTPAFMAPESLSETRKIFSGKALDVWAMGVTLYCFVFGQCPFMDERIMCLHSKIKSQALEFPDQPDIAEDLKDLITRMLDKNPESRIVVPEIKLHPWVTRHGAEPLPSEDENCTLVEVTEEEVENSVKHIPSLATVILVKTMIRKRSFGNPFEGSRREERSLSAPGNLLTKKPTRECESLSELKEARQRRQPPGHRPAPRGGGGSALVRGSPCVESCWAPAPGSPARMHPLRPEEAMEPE
Chain of CDK7 (P50613 whole entry): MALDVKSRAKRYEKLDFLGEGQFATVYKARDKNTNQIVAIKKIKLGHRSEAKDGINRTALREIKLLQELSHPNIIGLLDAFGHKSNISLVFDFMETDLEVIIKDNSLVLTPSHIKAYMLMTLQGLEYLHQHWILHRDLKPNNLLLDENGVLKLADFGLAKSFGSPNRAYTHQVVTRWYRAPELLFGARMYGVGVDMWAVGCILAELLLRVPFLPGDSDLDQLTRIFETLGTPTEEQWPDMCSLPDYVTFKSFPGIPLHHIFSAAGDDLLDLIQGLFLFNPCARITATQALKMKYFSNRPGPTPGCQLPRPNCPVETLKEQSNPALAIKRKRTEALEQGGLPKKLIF
T2 sequence (Q00535 whole entry): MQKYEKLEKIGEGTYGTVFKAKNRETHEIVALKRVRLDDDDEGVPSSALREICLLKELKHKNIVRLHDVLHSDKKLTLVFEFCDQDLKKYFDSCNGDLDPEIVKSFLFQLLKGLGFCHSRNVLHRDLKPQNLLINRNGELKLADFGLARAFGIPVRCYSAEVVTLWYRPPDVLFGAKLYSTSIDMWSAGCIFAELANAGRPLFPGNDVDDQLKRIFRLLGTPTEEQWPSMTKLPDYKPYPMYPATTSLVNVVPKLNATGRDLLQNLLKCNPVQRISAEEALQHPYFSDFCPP
T2 sequence (Q15078 99-307 partner limits assumed): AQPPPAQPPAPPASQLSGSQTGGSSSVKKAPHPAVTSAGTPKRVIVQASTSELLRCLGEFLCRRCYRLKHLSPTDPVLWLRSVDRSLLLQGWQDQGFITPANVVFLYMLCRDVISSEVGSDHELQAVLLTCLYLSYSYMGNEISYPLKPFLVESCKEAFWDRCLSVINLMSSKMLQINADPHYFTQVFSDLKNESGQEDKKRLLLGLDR

| SMILES | Kd (BMPR1B) [nM] | Kd (CLK2) [nM] | Kd (DYRK1A) [nM] | Kd (DYRK2) [nM] | Kd (CAMKK2) [nM] | Kd (CDK7) [nM] | IC50 [1] [µg/mL] | IC50 (CDK5/p25) [nM] |
| --- | --- | --- | --- | --- | --- | --- | --- | --- |
| Nc1nc2c(-c3cnc4ccccc4c3)nccc2[nH]1 [drawing 36, 4-(quinolin-3-yl)-1H-imidazo[4,5-c]pyridin-2-amine] | 7200 | 1200 | 300 | 970 |  |  |  |  |
| Nc1nc2c(-c3ccccn3)nccc2[nH]1 [drawing 35, 4-(pyrid-2-yl)-1H-imidazo[4,5-c]pyridin-2-amine] |  |  | 290 |  | > 30000 | 7500 |  |  |
| Nc1nc2c(-c3cc(Br)c(Br)[nH]3)nccc2[nH]1 [Ageladine A, ageladine A, reference compound] |  |  |  |  |  |  | 25 (≈ 70 µM) | > 100000 |
